Entries after “also recorded” stand apart in the source; their conditions may differ. Where two headings read alike, the source gives them in different places.
Columns and labels:
Type in all cases: biochemical
human Lys-plasmin = molecular target: T1, human Lys-plasmin (Homo sapiens, UniProt P00747); test: Direct inhibition of human Lys-plasmin, chromogenic substrate (Spectrozyme PL) hydrolysis assay; settings: for inhibition at 400 µM: 400 μM inhibitor, n ≥ 2, read-out: plasmin inhibition in initial screening; for IC50: human plasmin 20 nM, 50 mM Tris-HCl pH 7.4, 150 mM NaCl, 37 °C, Spectrozyme PL; for diminished potency relative to 32: 13-atom and 14-atom linkers vs 12-atom linker of 32; for decrease in inhibition potency relative to 31 and 32, respectively: tetrasulfated flavonoid replaced by para-sulfated quinazolinone
T1 construct: purchased Haematologic Technologies (Essex Junction, VT, USA)
T1 sequence (P00747 581-810 limits assumed): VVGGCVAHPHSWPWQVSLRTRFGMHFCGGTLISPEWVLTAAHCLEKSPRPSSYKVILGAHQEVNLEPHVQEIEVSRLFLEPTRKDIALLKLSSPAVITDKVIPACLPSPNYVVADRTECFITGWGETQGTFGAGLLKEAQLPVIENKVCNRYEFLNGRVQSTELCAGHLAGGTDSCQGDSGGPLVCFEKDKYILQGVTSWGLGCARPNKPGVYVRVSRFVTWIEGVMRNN
T1 sequence (P00747 97-580 partner limits assumed): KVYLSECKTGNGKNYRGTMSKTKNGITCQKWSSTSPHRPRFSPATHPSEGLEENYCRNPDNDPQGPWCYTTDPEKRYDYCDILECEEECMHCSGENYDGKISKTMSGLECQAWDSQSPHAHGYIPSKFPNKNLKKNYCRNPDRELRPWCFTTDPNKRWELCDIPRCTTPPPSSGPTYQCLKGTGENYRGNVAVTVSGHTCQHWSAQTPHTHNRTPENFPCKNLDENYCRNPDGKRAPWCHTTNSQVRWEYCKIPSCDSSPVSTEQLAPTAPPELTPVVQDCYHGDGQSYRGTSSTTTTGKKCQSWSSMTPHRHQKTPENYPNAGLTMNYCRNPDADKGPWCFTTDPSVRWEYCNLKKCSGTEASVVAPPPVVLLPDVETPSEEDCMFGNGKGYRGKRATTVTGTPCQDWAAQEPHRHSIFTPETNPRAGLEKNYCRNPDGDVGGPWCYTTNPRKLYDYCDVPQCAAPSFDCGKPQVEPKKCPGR
Description: Important to emphasize here that the potency of NSGM-based inhibitors was evaluated by measuring their IC50's (X-axis), whereas the efficacy was assessed by measuring the overall change in residual plasmin activity (%) (ΔY = YM − Y0) (Y-axis).
Direct inhibition of human Lys-plasmin was measured using a chromogenic substrate hydrolysis assay on a microplate reader (FlexStation III, Molecular Devices, Sunnyvale, CA, USA), as reported earlier. Briefly, to each well of a 96-well microplate containing 85 µL of 50 mM Tris-HCl buffer, pH 7.4, containing 150 mM NaCl, 0.1% PEG8000, and 0.02% Tween80 at 37 °C was added 5 µL potential NSGM-based inhibitor (20–100 mM aqueous solution) (or vehicle alone) and 5 µL enzyme. The final concentration of the enzyme was 20 nM. After 5 min incubation, 5 µL of 1 mM Spectrozyme PL was rapidly added and the residual enzyme activity was measured from the initial rate of increase in A405. Relative residual enzyme activity (Y) as a function of the concentration of sulfated molecule was fitted using logistic equation 1 to obtain the potency (IC50), efficacy (ΔY) and Hill slope (HS) of inhibition. In this equation, YM and Y0 are the maximal and minimal values of Y: (1) Y = Y0+YM−Y0/1+10^(log[Inhibitor]0 − logIC50) ×HS […]
In this equation, Y is the ratio of residual plasmin activity in the presence of inhibitor to that in its absence (fractional residual activity). YM and Y0 are the maximum and minimum possible values of the fractional residual proteinase activity. The difference between these two values is used to evaluate the inhibitor’s efficacy to reduce the residual enzyme activity under the assay condition.
Direct inhibition of human plasmin by sulfated small molecules. Direct inhibition of plasmin was measured using a chromogenic substrate hydrolysis assay on a microplate reader (FlexStation III, Molecular Devices), as reported earlier. Briefly, to each well of a 96-well microplate containing […]
Tween80 at 37 °C was added 5 µL potential inhibitor (or vehicle alone) and 5 µL enzyme. The final concentration of the enzyme was 20 nM. After 5 min incubation, 5 µL of 1 mM Spectrozyme PL was rapidly added and the residual enzyme activity was measured from the initial rate of increase in A405.
Relative residual enzyme activity (Y, activity in the presence of inhibitor to that in its absence) as a function of the concentration of SPGG derivative was fitted using logistic Equation (1) to obtain the potency (IC50), efficacy (ΔY) and Hill slope (HS) of inhibition. In this equation, YM and Y0 are the maximal and minimal values of Y.

factor Xa = factor Xa (Homo sapiens, UniProt P00742); test: Direct inhibition of factor Xa, chromogenic substrate (Spectrozyme FXa) hydrolysis assay; settings: for IC50: pH 7.4, 37 °C, read-out: IC50 against factor Xa
Chain of factor Xa (P00742 235-488 limits assumed): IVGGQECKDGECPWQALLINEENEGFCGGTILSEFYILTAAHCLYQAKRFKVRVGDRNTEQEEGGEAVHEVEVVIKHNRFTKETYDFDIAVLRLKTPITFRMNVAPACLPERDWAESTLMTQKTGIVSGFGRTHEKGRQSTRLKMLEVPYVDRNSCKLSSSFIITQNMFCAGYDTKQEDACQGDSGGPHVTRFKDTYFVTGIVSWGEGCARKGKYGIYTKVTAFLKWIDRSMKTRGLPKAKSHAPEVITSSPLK
Chain of factor Xa (P00742 41-179 partner limits assumed): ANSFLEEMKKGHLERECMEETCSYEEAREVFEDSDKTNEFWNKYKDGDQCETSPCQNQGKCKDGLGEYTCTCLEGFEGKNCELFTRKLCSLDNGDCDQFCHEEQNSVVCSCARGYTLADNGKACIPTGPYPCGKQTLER
Description: (§1) The rationale behind targeting an allosteric site on plasmin was to achieve inhibition specificity over the closely related serine proteases. In contrast to active sites, allosteric sites are not as highly conserved and therefore present a powerful opportunity for discovering a selective modulator of enzyme function. […] Using appropriate small peptide-based chromogenic substrates, the fractional residual thrombin and factor Xa activities were measured under the physiological condition of pH 7.4 and 37 °C.
(§2) Briefly, to each well of a 96-well microplate containing 185 μL of 20–50 mM Tris-HCl buffer, pH 7.4, containing 100–150 mM NaCl, 0.1% PEG8000 and 0.02% Tween80 at either 25 °C (thrombin) or 37 °C (factor Xa) was added 5 μL of 10–20 mM inhibitor (or vehicle) and 5 μL of the enzyme. The final concentrations of the enzymes were 6 nM (thrombin) and 1.09 nM (factor Xa). After 10 min incubation, 5 μL 1.0 mM Spectrozyme TH or 2.5 mM Spectrozyme FXa, was rapidly added and the residual enzyme activity was measured from the initial rate of increase in A405. Relative residual enzyme activity (Y, activity in the presence of inhibitor to that in its absence) as a function of the concentration of inhibitor was measured.

thrombin = thrombin (Homo sapiens, UniProt P00734); test: Direct inhibition of thrombin, chromogenic substrate (Spectrozyme TH) hydrolysis assay; settings: pH 7.4, 37 °C; read-out: IC50 against thrombin
Description: as §1, §2

human plasmin = molecular target: T2, human plasmin (Homo sapiens, UniProt P00747); test: Michaelis-Menten kinetics of Spectrozyme PL hydrolysis by human plasmin in presence of inhibitor
T2 construct: purchased Haematologic Technologies (Essex Junction, VT, USA)
T2 sequence (P00747 581-810 limits assumed): as the sequence (P00747 581-810 limits assumed) above
T2 sequence (P00747 97-580 partner limits assumed): as the sequence (P00747 97-580 partner limits assumed) above
Description: The initial rate of Spectrozyme PL hydrolysis by human plasmin (20 nM) was monitored from the linear increase in absorbance at 405 nm corresponding to less than 10% consumption of the substrate. […] The data were fitted by Michaelis-Menten Equation (2) to determine KM,app and VMAX: (2) V= VMAX [S]/KM+ [S] […]
Michaelis-Menten kinetics of Spectrozyme PL hydrolysis by plasmin in the presence of […]
The initial rate of Spectrozyme PL hydrolysis by human plasmin (20 nM) was monitored from the linear increase in absorbance at 405 nm corresponding to less than 10% consumption of the substrate. The initial rate was measured as a function of various concentrations of the substrate (0–400 μM) […]
50 mM Tris-HCl buffer, pH 7.4, 150 mM NaCl at 37 °C. The data were fitted by Michaelis-Menten Equation (2) to determine KM,app and VMAX. […]

[1] = pH 7.4, read-out: ΔY% (efficacy, YM − Y0), logistic fit, pH 7.4, 37 °C
[2] = pH 7.4, logistic fit, pH 7.4, 37 °C, read-out: ΔY% (efficacy, YM − Y0)
[3] = logistic fit, pH 7.4, 37 °C, read-out: ΔY% (efficacy, YM − Y0)

Row | IC50 (human Lys-plasmin) [µM] | HS (Hill slope) (human Lys-plasmin; logistic fit, pH 7.4, 37 °C) | Emax (human Lys-plasmin; [3]) [%] | Compound | other results
1 | 161 ± 24 | 1.0 ± 0.2 | 92 ± 4 | O=c1c2ccccc2nc(-c2ccc(OS(=O)(=O)O)cc2)n1CCCCCCCn1cc(Cn2c(-c3ccc(OS(=O)(=O)O)cc3)nc3ccccc3c2=O)nn1 [compound 42] | decrease in inhibition potency relative to 31 and 32, respectively (human Lys-plasmin): 3–4 fold
2 | 183 ± 43 | 1.0 ± 0.3 | 94 ± 21 | O=c1c2ccccc2nc(-c2ccc(OS(=O)(=O)O)cc2)n1CCCCCCCCn1cc(Cn2c(-c3ccc(OS(=O)(=O)O)cc3)nc3ccccc3c2=O)nn1 [compound 43] | decrease in inhibition potency relative to 31 and 32, respectively (human Lys-plasmin): 3–4 fold
3 | 137 ± 11 | 1.0 ± 0.2 | 102 ± 9 | O=c1c2ccccc2nc(-c2ccc(OS(=O)(=O)O)cc2)n1CCCCCCCCCn1cc(Cn2c(-c3ccc(OS(=O)(=O)O)cc3)nc3ccccc3c2=O)nn1 [compound 44] | 
4 | 98 ± 9 | 1.7 ± 0.6 | 94 ± 6 | O=c1c2ccccc2nc(-c2ccc(OS(=O)(=O)O)cc2)n1CCCCCCCCCCn1cc(Cn2c(-c3ccc(OS(=O)(=O)O)cc3)nc3ccccc3c2=O)nn1 [compound 45] | 
5 | 111 ± 7 | 2.4 ± 0.4 | 95 ± 2 | O=c1c2ccccc2nc(-c2ccc(OS(=O)(=O)O)cc2)n1CCCCCCCCCCCn1cc(Cn2c(-c3ccc(OS(=O)(=O)O)cc3)nc3ccccc3c2=O)nn1 [compound 46] | 
6 | 89 ± 7 | 1.9 ± 0.6 | 98 ± 7 | O=c1c2ccccc2nc(-c2ccc(OS(=O)(=O)O)cc2)n1CCCCCCCCCCCCn1cc(Cn2c(-c3ccc(OS(=O)(=O)O)cc3)nc3ccccc3c2=O)nn1 [compound 47] | 

The remaining lines, values behind:

Row | Compound | IC50 (human Lys-plasmin) [µM] | HS (Hill slope) (human Lys-plasmin; logistic fit, pH 7.4, 37 °C) | Emax (human Lys-plasmin; [3]) [%] | other results
7 | O=S(=O)(O)OC[C@H]1O[C@@](COS(=O)(=O)O)(O[C@H]2O[C@H](COS(=O)(=O)O)[C@@H](OS(=O)(=O)O)[C@H](OS(=O)(=O)O)[C@H]2OS(=O)(=O)O)[C@@H](OS(=O)(=O)O)[C@@H]1OS(=O)(=O)O [compound 17, sucrose octasulfate, reference compound] |  |  |  | inhibition at 400 µM (human Lys-plasmin; pH 7.4, 37 °C): ≤ 70%
8 | O=c1c(OS(=O)(=O)O)c(-c2ccc(OS(=O)(=O)O)c(OS(=O)(=O)O)c2)oc2cc(OS(=O)(=O)O)cc(OCc3cn(CCCCCCCn4c(-c5ccc(OS(=O)(=O)O)cc5)nc5ccccc5c4=O)nn3)c12 [compound 31, 3-(8-(4-((2-(3,4-O,O-Disulfonato-phenyl)-3,7-O,O-disulfonato-4-oxo-4H-chromen-5-yloxy)methyl)-1H-1,2,3-triazol-1-yl)heptyl)-2-(4-O-sulfonato-phenyl)quinazolin-4(3H)-one] | 56 ± 2 | 3.2 ± 0.8 |  | selectivity index for plasmin over factor Xa (factor Xa): about 5 fold; IC50 (factor Xa): > 250 µM; ΔY% (efficacy, YM − Y0) (human Lys-plasmin; logistic fit, pH 7.4, 37 °C): 87 ± 4%; Emax (human Lys-plasmin; [1]): 87%; IC50 (thrombin): > 500 µM
9 | O=c1c(OS(=O)(=O)O)c(-c2ccc(OS(=O)(=O)O)c(OS(=O)(=O)O)c2)oc2cc(OS(=O)(=O)O)cc(OCc3cn(CCCCCCCCn4c(-c5ccc(OS(=O)(=O)O)cc5)nc5ccccc5c4=O)nn3)c12 [compound 32, 3-(8-(4-((2-(3,4-O,O-Disulfonato-phenyl)-3,7-O,O-disulfonato-4-oxo-4H-chromen-5-yloxy)methyl)-1H-1,2,3-triazol-1-yl)octyl)-2-(4-O-sulfonato-phenyl)quinazolin-4(3H)-one] | 45 ± 2 | 2.3 ± 0.7 |  | selectivity index for plasmin over factor Xa (factor Xa): about 5 fold; IC50 (factor Xa): > 250 µM; Emax (human Lys-plasmin; [1]): 105%; mechanism of plasmin inhibition (human plasmin; Michaelis-Menten kinetics, pH 7.4, 37 °C): noncompetitive inhibition; also recorded: allosteric inhibitor; decrease in VMAX (human plasmin; inhibitor 0 to 250 μM): 5.5 fold; VMAX of Spectrozyme PL hydrolysis (human plasmin; inhibitor 1 μM): 65.8 ± 2.1 mAU/min; VMAX of Spectrozyme PL hydrolysis (human plasmin; inhibitor 10 μM): 56.4 ± 2.3 mAU/min; VMAX of Spectrozyme PL hydrolysis (human plasmin; inhibitor 50 μM): 41.4 ± 1.6 mAU/min; VMAX of Spectrozyme PL hydrolysis (human plasmin; inhibitor 150 μM): 20.7 ± 1.1 mAU/min; VMAX of Spectrozyme PL hydrolysis (human plasmin; inhibitor 250 μM): 12.5 ± 1.3 mAU/min; IC50 (thrombin): > 500 µM
10 | O=c1c(OS(=O)(=O)O)c(-c2ccc(OS(=O)(=O)O)c(OS(=O)(=O)O)c2)oc2cc(OS(=O)(=O)O)cc(OCc3cn(CCCCCCCCCn4c(-c5ccc(OS(=O)(=O)O)cc5)nc5ccccc5c4=O)nn3)c12 [compound 33] | 128 ± 8 | 1.8 ± 0.4 |  | diminished potency relative to 32 (human Lys-plasmin): ~ 3 fold; Emax (human Lys-plasmin; [1]): 89 ± 7%
11 | O=c1c(OS(=O)(=O)O)c(-c2ccc(OS(=O)(=O)O)c(OS(=O)(=O)O)c2)oc2cc(OS(=O)(=O)O)cc(OCc3cn(CCCCCCCCCCn4c(-c5ccc(OS(=O)(=O)O)cc5)nc5ccccc5c4=O)nn3)c12 [compound 34] | 130 ± 6 | 3.9 ± 1.0 |  | diminished potency relative to 32 (human Lys-plasmin): ~ 3 fold; Emax (human Lys-plasmin; [1]): 83 ± 5%
12 | O=c1c2ccccc2nc(-c2ccc(OS(=O)(=O)O)cc2)n1Cc1cn(CCn2cc(Cn3c(-c4ccc(OS(=O)(=O)O)cc4)nc4ccccc4c3=O)nn2)nn1 [compound 41] | 125 ± 9 | 4.0 ± 1.8 |  | ΔY% (efficacy, YM − Y0) (human Lys-plasmin; logistic fit, pH 7.4, 37 °C): 54 ± 5%; Emax (human Lys-plasmin; [2]): 54%
13 | O=c1c(OS(=O)(=O)O)c(-c2ccc(OS(=O)(=O)O)c(OS(=O)(=O)O)c2)oc2cc(OS(=O)(=O)O)cc(OCCOc3cc(OS(=O)(=O)O)cc4oc(-c5ccc(OS(=O)(=O)O)c(OS(=O)(=O)O)c5)c(OS(=O)(=O)O)c(=O)c34)c12 [compound 50] | 185 ± 68 | 1.4 ± 0.2 |  | loss in potency relative to 4-atom linker flavonoid homodimers (52, 54) (human Lys-plasmin): 2 fold; inhibition at 400 µM (human Lys-plasmin; pH 7.4, 37 °C): > 90%; ΔY% (efficacy, YM − Y0) (human Lys-plasmin; logistic fit, pH 7.4, 37 °C): 38 ± 15%; Emax (human Lys-plasmin; [2]): 38%
14 | O=c1c(OS(=O)(=O)O)c(-c2ccc(OS(=O)(=O)O)c(OS(=O)(=O)O)c2)oc2cc(OS(=O)(=O)O)cc(OCCCOc3cc(OS(=O)(=O)O)cc4oc(-c5ccc(OS(=O)(=O)O)c(OS(=O)(=O)O)c5)c(OS(=O)(=O)O)c(=O)c34)c12 [compound 51] | ~2830 |  |  | loss in potency relative to 4-atom linker flavonoid homodimers (52, 54) (human Lys-plasmin): 37 fold
15 | O=c1c(OS(=O)(=O)O)c(-c2ccc(OS(=O)(=O)O)c(OS(=O)(=O)O)c2)oc2cc(OS(=O)(=O)O)cc(OCCCCCOc3cc(OS(=O)(=O)O)cc4oc(-c5ccc(OS(=O)(=O)O)c(OS(=O)(=O)O)c5)c(OS(=O)(=O)O)c(=O)c34)c12 [compound 53] | 209 ± 25 | 0.6 ± 0.1 |  | loss in potency relative to 4-atom linker flavonoid homodimers (52, 54) (human Lys-plasmin): 3 fold; inhibition at 400 µM (human Lys-plasmin; pH 7.4, 37 °C): > 90%; Emax (human Lys-plasmin; [2]): 105 ± 8%
